Source: patent US20250134861A1, “COMPOSITIONS COMPRISING 5-METHOXY-N,N-DIMETHYLTRYPTAMINE (5-MEO-DMT) FOR USE IN TREATING MENTAL DISORDERS” (GH RESEARCH IRELAND LIMITED, priority 2019, published 2025)

Key:
[1] = system: patients with treatment-resistant major depressive disorder; assay: Clinical trial of inhaled 5-MeO-DMT in TRD patients: intensity of the psychedelic effects (MEQ30, ASC, PPEQ); type: in vivo, human; conditions: single 12 mg inhaled dose
Experimental: The following questionnaire is applied in situations where the acute psychedelic experience after treatment with 5-MeO-DMT needs to be quantified. At the end of relevant treatment sessions, the patient is handed a paper form and asked to rate the degree to which at any time during that session they experienced any of the phenomena listed below using the scale listed below. The MEQ30 is then computed and the occurrence of a peak psychedelic experience is then evaluated as described under scoring instructions.
The score for each individual subscale is computed by calculating the average score (from the scale of 0 to 5) for the phenomena belonging to the subscale as listed below.
The MEQ30-total score is computed by taking the average response to all phenomena. Patients or probands with a score≥60% of the maximum possible score on each of the four subscales of the MEQ30 are considered to have experienced a “peak psychedelic experience”.
(§1) The Peak Psychedelic Experience Questionnaire (PPEQ) has been developed by the inventor as an improved alternative to the oceanic boundlessness dimension of the ASC and the MEQ30 to allow a simpler and quicker assessment of the intensity of a psychedelic experience.

[2] = system: respondents with self-reported psychiatric conditions; conditions: majority of respondents; ritual or recreational use; observational; cited from earlier work
healthy volunteers [3] = assay: Clinical trial of inhaled 5-MeO-DMT in healthy volunteers: intensity of the psychedelic effects (PPEQ); type: in vivo, human
Experimental: (§2) The trial consisted of two parts: Part A, where single doses of 5-MeO-DMT dosage amounts of 2 mg, 6 mg, 12 mg and 18 mg were administered; and Part B, where an initial 5-MeO-DMT dosage amount of 6 mg was administered, and then, unless the participant had already experienced a peak psychedelic experience based on the PPEQ or the supervising physician had decided that further dose increases were inappropriate based on observed side effects, further subsequent dosage amounts of 12 mg and 18 mg were administered with about 3 hours in between each administration. […] Pharmacokinetic analysis of 5-MeO-DMT and bufotenine plasma levels was performed at 1 hour and 3 hours after drug administration in Part A, and at 3 hours after drug administration in Part B.
18 participants were recruited into Part A of the study and 4 participants were recruited into Part B. 9 Participants were female and 13 participants were male. Median age was 29 years (range: 19 to 42 years). […]
as §1, with “experience. The PPEQ is comprised of three questions, all to be scored from 0 to 100 by marking a Visual Analogue Scale between 0 and 100 mm: • 1. […]” for “experience.”

healthy volunteers [4] = assay: Clinical trial of inhaled 5-MeO-DMT in healthy volunteers: safety and tolerability; type: in vivo, human
Experimental: as §2
18 participants were recruited into Part A of the study and 4 participants were recruited into Part B. 9 Participants were female and 13 participants were male. Median age was 29 years (range: 19 to 42 years). In Part A, 4 participants received 2 mg, 6 participants received 6 mg, 4 participants received 12 mg and 4 participants received 18 mg of 5-MeO-DMT. In Part B, 1 participant received 6 mg, 2 participants received 6 mg and then 12 mg and one participant received 6 mg, 12 mg and then 18 mg of 5-MeO-DMT.

[5] = Part A, 2 mg single inhaled dose (n = 4), Administration day, possibly or probably related, mild
[6] = Part A, 6 mg single inhaled dose (n = 6), Administration day, possibly or probably related, mild
[7] = Part A, 6 mg single inhaled dose (n = 6), Day 1, possibly or probably related, mild
[8] = Part A, 18 mg single inhaled dose (n = 4), Administration day, possibly or probably related, mild
[9] = Part A, 18 mg single inhaled dose (n = 4), Day 1, possibly or probably related, mild
[10] = Part B, 12 mg (n = 3), after 6 mg, Administration day, possibly or probably related, mild

## COc1ccc2[nH]cc(CCN(C)C)c2c1 [5-MeO-DMT, 5-methoxy-N,N-dimethyltryptamine]
[1]; Patient 1
  PPE achieved (ASC: at least 60% of the maximum possible score of the Oceanic Boundlessness dimension): Yes
  PPE achieved (MEQ30: at least 60% of the maximum possible score in each of the four subscales): Yes
  PPE achieved (PPEQ Total Score of at least 75): Yes
[1]; Patient 2
  PPE achieved (ASC: at least 60% of the maximum possible score of the Oceanic Boundlessness dimension): No
  PPE achieved (MEQ30: at least 60% of the maximum possible score in each of the four subscales): Yes
  PPE achieved (PPEQ Total Score of at least 75): Yes
[1]; both patients
  Onset of the first psychedelic symptoms after the inhalation: within a few seconds
[2]
  Self-perceived change of psychiatric symptoms (anxiety, depression, substance use problems, post-traumatic stress disorder): perceived improvements in symptoms
Healthy volunteers [3]; Part B, 6 mg, then 12 mg and 18 mg about 3 hours apart
  Intensity of the psychedelic experience with dose escalation: increased with the increasing dosage amounts in all participants
Healthy volunteers [3]; all participants, 2 to 18 mg inhaled
  Onset of the first psychedelic symptoms after the inhalation: within a few seconds
Healthy volunteers [4]; Part A and Part B
  Evaluation of ECG, safety laboratory analyses, CADSS and cognitive tests (PVT, DSST, PMT): unremarkable
  Severity and course of reported adverse events: all mild (except for one moderate event) and all resolved spontaneously
Healthy volunteers [4]; Part A and Part B, 2 to 18 mg inhaled
  Inhalation-related adverse events: No inhalation-related adverse events
Healthy volunteers [4]; [5]
  Adverse events reported: Nausea: 2
  Adverse events reported: Tachycardia: 1
  Adverse events reported: Vision blurred: 1
Healthy volunteers [4]; [6]
  Adverse events reported: Anxiety: 1
  Adverse events reported: Headache: 1
  Adverse events reported: Nausea: 1
Healthy volunteers [4]; [7]
  Adverse events reported: Clumsiness: 1
  Adverse events reported: Feeling hot: 1
  Adverse events reported: Headache: 1
Healthy volunteers [4]; Part A, 12 mg single inhaled dose (n = 4), Administration day, possibly or probably related, mild
  Adverse events reported: Anxiety: 1
Healthy volunteers [4]; Part A, 12 mg single inhaled dose (n = 4), Administration day, possibly or probably related, this event was moderate
  Adverse events reported: Heart rate increased: 1^1
Healthy volunteers [4]; [8]
  Adverse events reported: Headache: 1
  Adverse events reported: Nausea: 1
Healthy volunteers [4]; [9]
  Adverse events reported: Abnormal dreams: 1
  Adverse events reported: Fatigue: 1
  Adverse events reported: Hallucination: 1
  Adverse events reported: Hyperacusis: 1
  Adverse events reported: Insomnia: 1
  Adverse events reported: Mental fatigue: 1
Healthy volunteers [4]; Part A, 18 mg single inhaled dose (n = 4), Day 7, possibly or probably related, mild
  Adverse events reported: Flashback: 1
Healthy volunteers [4]; Part B, 6 mg inhaled (n = 4), Administration day, possibly or probably related, mild
  Adverse events reported: Nausea: 1
Healthy volunteers [4]; [10]
  Adverse events reported: Fatigue: 1
  Adverse events reported: Head discomfort: 1
  Adverse events reported: Headache: 1
  Adverse events reported: Nausea: 1
Healthy volunteers [4]; Part B, 18 mg (n = 1), after 12 mg and 6 mg, Administration day, Day 1 and Day 7
  Adverse events reported: None reported
Healthy volunteers [4]; shortly after administration, no other noteworthy changes
  Changes in vital parameters: temporary, not clinically relevant increase in heart rate and blood pressure
